Two compounds from patent US10463764B2, “3D tissue-engineered bone marrow for personalized therapy and drug development” (Washington University, priority 2014, dated 2019) can be followed below.

Usually IC50 stands for the concentration needed to halve the response being measured. A higher IC50 goes with a need for much substance.

In assay [1] the test system is MM1s cells. Put plainly: Drug survival of MM1s cells in mono- or multi-culture in classic 2D cultures and 3DTEBM, by flow cytometry. It is filed as cell-based. As to conditions: Homo sapiens, MM1.S, 24 h. On the procedure: MM1s-GFP cells (30×10^3 cells/well) were cultured in mono-culture or multi-culture conditions [CD138^− stromal cells-DiD (10×10^3 cells/well), HUVECs-DiD (10×10^3 cells/well), and fibronectin 100 ng/ml)] in 3DTEBM and classic 2D cultures. After 2 h gelification of 3DTEBM or adhesion in 2D cultures (cells were culture in 50 μl), 50 ul of RPMI completed media was added on top of 3DTEBM. Then, 50 μl of bortezomib (0-30 nM), carfilzomib (0, 10 nM), or melphalan (0, 1 μM) solutions were added on top of 2D cultures and 3DTEBM for 24 h. Cell proliferation assay was assessed by flow cytometry as previously described. Briefly, drug-media was removed, 3DTEBM were digested and cells of 2D cultures detached by pipetting. Effect of drug treatment in MM1s-GFP cells was measured and normalized to non-treated conditions.
Finally, the effect of increasing concentrations of bortezomib on the survival of MM1s cells grown in mono-culture or multi-culture in 3DTEBM and 2D cultures was measured.
In general terms: In flow cytometry, cells or beads pass a laser one at a time.

For assay [2], the system named is MM1s cells. Put plainly: Effect of ECM component fibronectin on growth of MM cells inside 3DTEBM, by flow cytometry. It is filed as cell-based. The note with it: 100 ng/ml, day 3. On the procedure: For flow cytometry analysis, an internal control (MM1s-calcein violet) was added and a minimum of 5,000 events were acquired using BD FACS Aria (BD Biosciences) and DiVa v6.1.2 software. The data was analyzed using FlowJo program v10 (Ashland, Oreg.). MM cells or CD138^+ cells were identified by gating cells with a high GFP/DiO signal (excitement, 488 nm; filter, 530/30 nm); Hs5 stroma or CD138-stromal cells were identified by gating cells with a high DiD signal (excitement, 638 nm; filter, 660/20 nm); HUVECs were identified by gating cells with a high DiI signal (excitement, 488 nm; filter, 585/15 nm); and MM1s cells control were identified by gating cells with a high UV signal (excitement, 355 nm; filter, 450/50 nm). A 3DTEBM was digested with type I collagenase at 25 mg/ml for 2 h at 37° C. Classic bi-dimensional (2D) cultures were washed with PBS and removed by pipetting. The effect of cell density (5×10^3-50×10^3 cells/well) of MM1s-GFP, Hs5 stroma-DiD, CD138− stromal cells-DiD, and HUVECs-DiI on growth rate in mono-cultures at day 3 inside 3DTEBM was measured by flow cytometry. […]

With `CC(C)C[C@H](NC(=O)[C@H](Cc1ccccc1)NC(=O)c1cnccn1)B(O)O` [bortezomib], the IC50 with MM1s cells [1] (3DTEBM mono-culture) was 15 to 20 nM; with MM1s cells [1] (3DTEBM multi-culture (CD138- stromal cells, HUVECs, fibronectin)), roughly 25 nM; in the assay with MM1s cells [1] (classic 2D mono-culture), roughly 5 nM; in the assay with MM1s cells [1] (classic 2D multi-culture (CD138- stromal cells, HUVECs, fibronectin)) it was roughly 7 nM.

Take fibronectin: in the assay with MM1s cells [2], the “increase of growth of MM cells in 3DTEBM” value is listed as “about 25%”.
